The supplement of paper PMC13380429

Assays:
[1] = system: A549-ACE2 infected with SARS-CoV-2; assay: cell count relative to DMSO; higher = less toxic; conditions: 24 h
Caco-2 [2] = assay: cell viability relative to DMSO; higher = less toxic; conditions: 72 h
Calu-3 [3] = assay: as above; conditions: 72 h
HepG2 [4] = assay: as above; conditions: 72 h
U2OS [5] = assay: as above; conditions: 72 h
Vero E6 [6] = assay: as above; conditions: 72 h
[7] = system: A549-ACE2 infected with SARS-CoV-2; assay: SARS-CoV-2 infection rate relative to DMSO; higher = more infection; conditions: 24 h
A549-ACE2 [8] = assay: phospholipidosis EC50; higher = less potent phospholipidosis inducer
A549-ACE2 [9] = assay: drug-induced phospholipidosis relative to tamoxifen; higher = more phospholipidosis
[10] = system: A549-ACE2 infected with SARS-CoV-2; assay: morphology score (similarity to uninfected cells); higher = more like uninfected cells; conditions: 24 h
Caco-2 [11] = assay: relative viability EC50 (midpoint between 100% and the lowest measured viability); higher = less toxic; conditions: 72 h
Calu-3 [12] = assay: as above; conditions: 72 h
HepG2 [13] = assay: as above; conditions: 72 h
U2OS [14] = assay: as above; conditions: 72 h
Vero E6 [15] = assay: as above; conditions: 72 h
Caco-2 [16] = assay: drug sensitivity score (DSS) for viability; higher = more toxic; extreme values may be limits of the assay; conditions: 72 h
Calu-3 [17] = assay: as above; conditions: 72 h
HepG2 [18] = assay: as above; conditions: 72 h
U2OS [19] = assay: as above; conditions: 72 h
Vero E6 [20] = assay: as above; conditions: 72 h

O=c1[nH]c2ccccc2n1C1CCN(CCCC(c2ccc(F)cc2)c2ccc(F)cc2)CC1 [pimozide]
Conditions	SARS-CoV-2 infection rate [%]	cell count [%]	cell viability [%]	morphology score	phospholipidosis EC50 [µM]
A549-ACE2 [8], 24 h	–	–	–	–	4.66
A549-ACE2 [8], 48 h	–	–	–	–	6.29
A549-ACE2 [8], 72 h	–	–	–	–	6.67
Caco-2 [2], 1 nM	–	–	92.2	–	–
Caco-2 [2], 10 nM	–	–	99.1	–	–
Caco-2 [2], 100 nM	–	–	98	–	–
Caco-2 [2], 1000 nM	–	–	94.6	–	–
Caco-2 [2], 10000 nM	–	–	95.7	–	–
Calu-3 [3], 1 nM	–	–	100	–	–
Calu-3 [3], 10 nM	–	–	95.5	–	–
Calu-3 [3], 100 nM	–	–	95.2	–	–
Calu-3 [3], 1000 nM	–	–	100	–	–
Calu-3 [3], 10000 nM	–	–	93.9	–	–
HepG2 [4], 1 nM	–	–	119	–	–
HepG2 [4], 10 nM	–	–	114	–	–
HepG2 [4], 100 nM	–	–	108	–	–
HepG2 [4], 1000 nM	–	–	85.2	–	–
HepG2 [4], 10000 nM	–	–	104	–	–
U2OS [5], 1 nM	–	–	99.4	–	–
U2OS [5], 10 nM	–	–	102	–	–
U2OS [5], 100 nM	–	–	99.5	–	–
U2OS [5], 1000 nM	–	–	104	–	–
U2OS [5], 10000 nM	–	–	94.6	–	–
Vero E6 [6], 1 nM	–	–	106	–	–
Vero E6 [6], 10 nM	–	–	88.7	–	–
Vero E6 [6], 100 nM	–	–	104	–	–
Vero E6 [6], 1000 nM	–	–	94.2	–	–
Vero E6 [6], 10000 nM	–	–	104	–	–
[1], 0.3 µM	–	92	–	–	–
[1], 3 µM	–	108	–	–	–
[1], 10 µM	–	113	–	–	–
[1], 30 µM	–	86	–	–	–
[7], 0.3 µM	99	–	–	–	–
[7], 3 µM	83	–	–	–	–
[7], 10 µM	20	–	–	–	–
[7], 30 µM	33	–	–	–	–
[10], 0.3 µM	–	–	–	-0.1	–
[10], 3 µM	–	–	–	0.46	–
[10], 10 µM	–	–	–	0.79	–
[10], 30 µM	–	–	–	0.31	–

drug-induced phospholipidosis [%], A549-ACE2 [9]
Conditions	0.3 µM	0.833333 µM	3.33333 µM	6.66667 µM	10 µM	30 µM
24 h	4.09	5.84	24.5	59.8	64.4	78
48 h	4.99	5.4	17.8	56.9	81	99.5
72 h	6.59	6.94	22.7	60.3	85.3	111

Conditions	drug sensitivity score	relative viability EC50 [µM]
Caco-2 [11]	–	> 10
Caco-2 [16]	0	–
Calu-3 [12]	–	> 10
Calu-3 [17]	0	–
HepG2 [13]	–	> 10
HepG2 [18]	0	–
U2OS [14]	–	> 10
U2OS [19]	0	–
Vero E6 [15]	–	> 10
Vero E6 [20]	0	–

Cc1[nH]c(/C=C2\C(=O)Nc3ccc(S(=O)(=O)N(C)c4cccc(Cl)c4)cc32)c(C)c1C(=O)N1CCN(C)CC1
Conditions	SARS-CoV-2 infection rate [%]	cell count [%]	cell viability [%]	morphology score	phospholipidosis EC50 [µM]
A549-ACE2 [8], 24 h	–	–	–	–	4.77
A549-ACE2 [8], 48 h	–	–	–	–	3.94
Caco-2 [2], 1 nM	–	–	96	–	–
Caco-2 [2], 10 nM	–	–	98.5	–	–
Caco-2 [2], 100 nM	–	–	99.9	–	–
Caco-2 [2], 1000 nM	–	–	97.5	–	–
Caco-2 [2], 10000 nM	–	–	85.2	–	–
Calu-3 [3], 1 nM	–	–	106	–	–
Calu-3 [3], 10 nM	–	–	93.5	–	–
Calu-3 [3], 100 nM	–	–	112	–	–
Calu-3 [3], 1000 nM	–	–	101	–	–
Calu-3 [3], 10000 nM	–	–	83.8	–	–
HepG2 [4], 1 nM	–	–	106	–	–
HepG2 [4], 10 nM	–	–	105	–	–
HepG2 [4], 100 nM	–	–	93.5	–	–
HepG2 [4], 1000 nM	–	–	103	–	–
HepG2 [4], 10000 nM	–	–	66.5	–	–
U2OS [5], 1 nM	–	–	104	–	–
U2OS [5], 10 nM	–	–	98.2	–	–
U2OS [5], 100 nM	–	–	106	–	–
U2OS [5], 1000 nM	–	–	101	–	–
U2OS [5], 10000 nM	–	–	91	–	–
Vero E6 [6], 1 nM	–	–	101	–	–
Vero E6 [6], 10 nM	–	–	102	–	–
Vero E6 [6], 100 nM	–	–	94.3	–	–
Vero E6 [6], 1000 nM	–	–	107	–	–
Vero E6 [6], 10000 nM	–	–	88.1	–	–
[1], 0.3 µM	–	94	–	–	–
[1], 3 µM	–	105	–	–	–
[1], 10 µM	–	70	–	–	–
[1], 30 µM	–	85	–	–	–
[7], 0.3 µM	89	–	–	–	–
[7], 3 µM	46	–	–	–	–
[7], 10 µM	20	–	–	–	–
[7], 30 µM	34	–	–	–	–
[10], 0.3 µM	–	–	–	0.29	–
[10], 3 µM	–	–	–	0.61	–
[10], 10 µM	–	–	–	0.45	–
[10], 30 µM	–	–	–	0.53	–

drug-induced phospholipidosis [%], A549-ACE2 [9]
Conditions	0.3 µM	0.833333 µM	3.33333 µM	6.66667 µM	10 µM	30 µM
24 h	22.5	42.3	133	230	269	324
48 h	12.7	30.6	129	–	333	340
72 h	9.3	20.7	128	–	–	–

Conditions	drug sensitivity score	relative viability EC50 [µM]
Caco-2 [11]	–	> 10
Caco-2 [16]	0.5	–
Calu-3 [12]	–	> 10
Calu-3 [17]	0.3	–
HepG2 [18]	1.3	–
U2OS [14]	–	> 10
U2OS [19]	0	–
Vero E6 [15]	–	> 10
Vero E6 [20]	0	–

O=S(=O)(NCC1CC1)c1ccc(Nc2nccc(N3CCCc4cc(O)ccc43)n2)cc1 [pyrintegrin]
Conditions	SARS-CoV-2 infection rate [%]	cell count [%]	cell viability [%]	morphology score	phospholipidosis EC50 [µM]
A549-ACE2 [8], 24 h	–	–	–	–	1.91
Caco-2 [2], 1 nM	–	–	98.1	–	–
Caco-2 [2], 10 nM	–	–	102	–	–
Caco-2 [2], 100 nM	–	–	100	–	–
Caco-2 [2], 1000 nM	–	–	110	–	–
Caco-2 [2], 10000 nM	–	–	86.2	–	–
Calu-3 [3], 1 nM	–	–	95.5	–	–
Calu-3 [3], 10 nM	–	–	89.7	–	–
Calu-3 [3], 100 nM	–	–	92.8	–	–
Calu-3 [3], 1000 nM	–	–	102	–	–
Calu-3 [3], 10000 nM	–	–	85	–	–
HepG2 [4], 1 nM	–	–	102	–	–
HepG2 [4], 10 nM	–	–	103	–	–
HepG2 [4], 100 nM	–	–	107	–	–
HepG2 [4], 1000 nM	–	–	66.6	–	–
HepG2 [4], 10000 nM	–	–	15.5	–	–
U2OS [5], 1 nM	–	–	99	–	–
U2OS [5], 10 nM	–	–	97	–	–
U2OS [5], 100 nM	–	–	97.8	–	–
U2OS [5], 1000 nM	–	–	96	–	–
U2OS [5], 10000 nM	–	–	62.4	–	–
Vero E6 [6], 1 nM	–	–	90.5	–	–
Vero E6 [6], 10 nM	–	–	93.9	–	–
Vero E6 [6], 100 nM	–	–	98.9	–	–
Vero E6 [6], 1000 nM	–	–	98.3	–	–
Vero E6 [6], 10000 nM	–	–	75.3	–	–
[1], 0.1 µM	–	104	–	–	–
[1], 0.3 µM	–	106	–	–	–
[1], 1 µM	–	107	–	–	–
[1], 3 µM	–	86	–	–	–
[7], 0.1 µM	104	–	–	–	–
[7], 0.3 µM	103	–	–	–	–
[7], 1 µM	81	–	–	–	–
[7], 3 µM	60	–	–	–	–
[10], 0.1 µM	–	–	–	0.18	–
[10], 0.3 µM	–	–	–	0.28	–
[10], 1 µM	–	–	–	0.52	–
[10], 3 µM	–	–	–	0.4	–

drug-induced phospholipidosis [%], A549-ACE2 [9]
Conditions	0.3 µM	0.833333 µM	3.33333 µM	6.66667 µM	10 µM
24 h	5.15	22.5	132	178	150
48 h	3.16	12.3	135	–	–
72 h	2.43	7.41	–	–	–

Conditions	drug sensitivity score	relative viability EC50 [µM]
Caco-2 [11]	–	> 10
Caco-2 [16]	0	–
Calu-3 [12]	–	> 10
Calu-3 [17]	0.1	–
HepG2 [13]	–	1.19
HepG2 [18]	9.2	–
U2OS [19]	2.5	–
Vero E6 [15]	–	> 10
Vero E6 [20]	1.2	–
